The values that follow come from PMC10402865, “Fragment-based design, synthesis and biological evaluation of theophylline derivatives as ATAD2 inhibitors in BT-549 cells” (Journal of Enzyme Inhibition and Medicinal Chemistry, 2023).

A value given as a limit tells only on which side of the number the result lay.

Data set [1] concerns the target T1, ATAD2 recombinant bromodomain protein (Homo sapiens, UniProt Q6PL18).
T1 sequence (Q6PL18 980-1092 limits assumed): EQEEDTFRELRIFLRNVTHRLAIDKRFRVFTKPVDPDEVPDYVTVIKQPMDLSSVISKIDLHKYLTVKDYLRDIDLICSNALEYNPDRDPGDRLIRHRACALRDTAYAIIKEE
Kind of data set: ATAD2 enzymatic assay by TR-FRET technology. The format is binding. Conditions: for IC50 / ATAD2 inhibitory activity, in words: TR-FRET; for IC50: mean ± SD, read-out: Kinase inhibitory activity (IC50, μM) ATAD2. Here is the method:
The assay was performed by TR-FRET technology using recombinant bromodomain and BET Ligand[8]. The compounds were diluted with indicated folds in 5% DMSO in reaction buffer and 2 µl of the dilution was added to a 20 µl reaction so that the final concentration of DMSO is 0.5% in all of the reactions. The 20 µl reaction mixture consists of the ATAD2 recombinant bromodomain protein, the indicated amount of the inhibitor, ligand, and the reactive dyes. The reaction mixture was incubated for 3 h before reading the TR-FRET signal. Fluorescence signals for both the donor and acceptor dyes were measured using a Tecan Infinite M1000 plate reader. Binding experiments were performed in duplicate at each concentration and the data were analysed using GraphPad Prism.

The subject of the next data set is BT-549 cells. The experiment in a line: Cell viability (MTT) assay, anti-proliferative activity. The format is cell-based. Conditions: Homo sapiens, MTT, 24 h, mean ± SD. Here is the method:
BT-549 cells were seeded at a density of 5 × 10^4 cells/ml in a 96-well plate. Following a 24-h incubation period, the cells were exposed to various concentrations of different compounds for the specified durations. Cell viability was evaluated using an MTT assay.

In the case of `COc1ccc(C(=O)N2CCS(=O)(=O)CC2)cc1NC(=O)Cn1cnc2c(=O)n(C)c(=O)n(C)c21` [Compound 15f, 2–(1,3-dimethyl-2,6-dioxo-1,2,3,6-tetrahydro-9H-purin-9-yl)-N-(5–(1,1-dioxidothiomorpholine-4-carbonyl)-2-methoxyphenyl)acetamide], the IC50 is over 25 µM in data set [1] and over 30 µM in the data set with BT-549 cells.
In the case of `Cn1c(=O)c2ncn(CC(=O)Nc3cccc(C(=O)N4CCS(=O)(=O)CC4)c3)c2n(C)c1=O` [Compound 15d, 2–(1,3-dimethyl-2,6-dioxo-1,2,3,6-tetrahydro-9H-purin-9-yl)-N-(3–(1,1-dioxidothiomorpholine-4-carbonyl)phenyl)acetamide], the melting point fell in the range of 224 to 226 °C. Besides, the IC50 in data set [1] is over 25 µM. The IC50 in the data set on BT-549 cells was over 30 µM.
`Cn1c(=O)c2ncn(CC(=O)Nc3cc(C(=O)N4CCOCC4)ccc3Cl)c2n(C)c1=O` [Compound 15j, N-(2-chloro-5-(morpholine-4-carbonyl)phenyl)-2–(1,3-dimethyl-2,6-dioxo-1,2,3,6-tetrahydro-9H-purin-9-yl)acetamide] registered a melting point of 262 to 264 °C. In addition, the IC50 in data set [1] amounted to 15.2 ± 3.63 µM. For the same compound, the IC50 in the data set on BT-549 cells is 26.1 ± 3.77 µM.
Consider `Cn1c(=O)c2ncn(CC(=O)Nc3cccc(C(=O)N4CCOCC4)c3)c2n(C)c1=O` [Compound 15g, 2–(1,3-dimethyl-2,6-dioxo-1,2,3,6-tetrahydro-9H-purin-9-yl)-N-(3-(morpholine-4-carbonyl)phenyl)acetamide], for which the melting point was 266 to 268 °C. In data set [1], the “ATAD2 inhibitory activity, in words” value is “weak inhibition potency” and the half-maximal inhibitory concentration (IC50) amounted to 21.2 ± 3.17 µM. The IC50 in the data set on BT-549 cells was over 30 µM.
The compound `Cn1c(=O)c2ncn(CC(=O)Nc3cccc(C(=O)N4CCOCC4)c3F)c2n(C)c1=O` [Compound 15k, 2–(1,3-dimethyl-2,6-dioxo-1,2,3,6-tetrahydro-9H-purin-9-yl)-N-(2-fluoro-3-(morpholine-4-carbonyl)phenyl)acetamide] displayed a melting point of 265 to 267 °C. Moreover, in data set [1], the IC50 is over 25 µM. Further, in the data set on BT-549 cells, the IC50 is over 30 µM.
In the same order, the values of `COc1ccc(C(=O)NC2CCCCC2)cc1NC(=O)Cn1cnc2c(=O)n(C)c(=O)n(C)c21` [Compound 19i, N-cyclohexyl-3–(2-(1,3-dimethyl-2,6-dioxo-1,2,3,6-tetrahydro-9H-purin-9-yl)acetamido)-4-methoxybenzamide] are 185 to 187 °C, 12.3 ± 3.06 µM and 22 ± 3.35 µM.
In the same order, the values of `Cn1c(=O)c2ncn(CC(=O)Nc3cccc(C(=O)NC4CCCCC4)c3)c2n(C)c1=O` [Compound 19g, N-cyclohexyl-3–(2-(1,3-dimethyl-2,6-dioxo-1,2,3,6-tetrahydro-9H-purin-9-yl)acetamido)benzamide] are 195 to 197 °C, 17.3 ± 3.92 µM and 25.1 ± 4.27 µM.
`COc1ccc(C(=O)NC2CCCCCC2)cc1NC(=O)Cn1cnc2c(=O)n(C)c(=O)n(C)c21` [Compound 19l, N-cycloheptyl-3–(2-(1,3-dimethyl-2,6-dioxo-1,2,3,6-tetrahydro-9H-purin-9-yl)acetamido)-4-methoxybenzamide] gave a melting point of 197 to 198 °C. For the same compound, the IC50 in data set [1] is over 25 µM. Besides, the IC50 with BT-549 cells was over 30 µM.
In the same order, the values of `Cn1c(=O)c2ncn(CC(=O)Nc3cccc(C(=O)NC4CC4)c3)c2n(C)c1=O` [Compound 19a, N-cyclopropyl-3–(2-(1,3-dimethyl-2,6-dioxo-1,2,3,6-tetrahydro-9H-purin-9-yl)acetamido)benzamide] are 222 to 224 °C, 13.8 ± 2.57 µM and over 30 µM.
In the same order, the values of `Cn1c(=O)c2ncn(CC(=O)Nc3cccc(C(=O)NC4CCCC4)c3)c2n(C)c1=O` [Compound 19d, N-cyclopentyl-3–(2-(1,3-dimethyl-2,6-dioxo-1,2,3,6-tetrahydro-9H-purin-9-yl)acetamido)benzamide] are 207 to 208 °C, 5.13 ± 0.72 µM and 17.9 ± 3.54 µM.
The compound `COc1ccc(C(=O)NC2CC2)cc1NC(=O)Cn1cnc2c(=O)n(C)c(=O)n(C)c21` [Compound 19c, N-cyclopropyl-3–(2-(1,3-dimethyl-2,6-dioxo-1,2,3,6-tetrahydro-9H-purin-9-yl)acetamido)-4-methoxybenzamide] returned a melting point of 231 to 233 °C. The half-maximal inhibitory concentration (IC50) in data set [1] turned out to be 9.19 ± 1.9 µM. The compound also came in with an IC50 in the data set on BT-549 cells of 21.9 ± 4.03 µM.
For `Cc1ccc(C(=O)NC2CCCC2)cc1NC(=O)Cn1cnc2c(=O)n(C)c(=O)n(C)c21` [Compound 19e, N-cyclopentyl-3–(2-(1,3-dimethyl-2,6-dioxo-1,2,3,6-tetrahydro-9H-purin-9-yl)acetamido)-4-methylbenzamide], the melting point is 211 to 213 °C. In addition, in data set [1], the “increase in ATAD2 activity compared to 19d” value is recorded as “about a three-fold increase in activity” and the IC50 came out at 1.78 ± 0.39 µM. The compound further yielded an IC50 with BT-549 cells of 11.3 ± 2.7 µM.
For `Cc1cc2c(cc1N)n(C)c(=O)n2C` [TS-1], the IC50 in data set [1] was 411 µM.
Regarding `Cn1c(=O)c2ncn(CC(=O)Nc3cccc(C(=O)N4CCSCC4)c3)c2n(C)c1=O` [Compound 15a, 2–(1,3-dimethyl-2,6-dioxo-1,2,3,6-tetrahydro-9H-purin-9-yl)-N-(3-(thiomorpholine-4-carbonyl)phenyl)acetamide], the melting point lay in the range of 246 to 248 °C. In addition, in data set [1], the “ATAD2 inhibitory activity, in words” value is “without ATAD2 inhibition activity” and the IC50 is over 25 µM. This compound returned an IC50 with BT-549 cells of over 30 µM.
Regarding `Cc1ccc(C(=O)N2CCS(=O)(=O)CC2)cc1NC(=O)Cn1cnc2c(=O)n(C)c(=O)n(C)c21` [Compound 15e, 2–(1,3-dimethyl-2,6-dioxo-1,2,3,6-tetrahydro-9H-purin-9-yl)-N-(5–(1,1-dioxidothiomorpholine-4-carbonyl)-2-methylphenyl)acetamide], the melting point is 231 to 233 °C. Besides, the IC50 in data set [1] is over 25 µM. Moreover, the IC50 in the data set on BT-549 cells is over 30 µM.
On to `Cn1c(=O)c2[nH]cnc2n(C)c1=O` [TS-2, theophylline], for which the IC50 in data set [1] turned out to be 324 µM.
On to `Cn1c(=O)c2ncn(CC(=O)Nc3cccc(C(=O)NC4CCCCCC4)c3)c2n(C)c1=O` [Compound 19j, N-cycloheptyl-3–(2-(1,3-dimethyl-2,6-dioxo-1,2,3,6-tetrahydro-9H-purin-9-yl)acetamido)benzamide], for which the melting point lay within 189 to 190 °C. The IC50 in data set [1] was over 25 µM. In the data set with BT-549 cells, this compound showed an IC50 of over 30 µM.
`COc1ccc(C(=O)N2CCSCC2)cc1NC(=O)Cn1cnc2c(=O)n(C)c(=O)n(C)c21` [Compound 15c, 2–(1,3-dimethyl-2,6-dioxo-1,2,3,6-tetrahydro-9H-purin-9-yl)-N-(2-methoxy-5-(thiomorpholine-4-carbonyl)phenyl)acetamide]: the melting point was in the range of 257 to 258 °C. Besides, in data set [1], the “ATAD2 inhibitory activity, in words” value is “weak inhibitory activities against ATAD2” and the IC50 was found to be 14.8 ± 1.78 µM. The IC50 in the data set on BT-549 cells was over 30 µM.
For the compound `Cc1ccc(C(=O)NC2CCCCC2)cc1NC(=O)Cn1cnc2c(=O)n(C)c(=O)n(C)c21` [Compound 19h, N-cyclohexyl-3–(2-(1,3-dimethyl-2,6-dioxo-1,2,3,6-tetrahydro-9H-purin-9-yl)acetamido)-4-methylbenzamide], the melting point is 199 to 201 °C. In addition, in data set [1], the IC50 amounted to 19.7 ± 4.38 µM. The compound further displayed an IC50 in the data set with BT-549 cells of 11.7 ± 2.46 µM.
In the same order, the values of `Cc1ccc(C(=O)NC2CC2)cc1NC(=O)Cn1cnc2c(=O)n(C)c(=O)n(C)c21` [Compound 19b, N-cyclopropyl-3–(2-(1,3-dimethyl-2,6-dioxo-1,2,3,6-tetrahydro-9H-purin-9-yl)acetamido)-4-methylbenzamide] are 218 to 219 °C, 9.06 ± 1.81 µM and 18.7 ± 3.06 µM.
As to `Cc1ccc(C(=O)N2CCOCC2)cc1NC(=O)Cn1cnc2c(=O)n(C)c(=O)n(C)c21` [Compound 15h, 2–(1,3-dimethyl-2,6-dioxo-1,2,3,6-tetrahydro-9H-purin-9-yl)-N-(2-methyl-5-(morpholine-4-carbonyl)phenyl)acetamide], the melting point is 270 to 271 °C. In addition, the IC50 in data set [1] was over 25 µM. Further, the half-maximal inhibitory concentration (IC50) with BT-549 cells is over 30 µM.
Consider `Cc1ccc(C(=O)N2CCSCC2)cc1NC(=O)Cn1cnc2c(=O)n(C)c(=O)n(C)c21` [Compound 15b, 2–(1,3-dimethyl-2,6-dioxo-1,2,3,6-tetrahydro-9H-purin-9-yl)-N-(2-methyl-5-(thiomorpholine-4-carbonyl)phenyl)acetamide], for which the melting point is 251 to 252 °C. In addition, in data set [1], the “ATAD2 inhibitory activity, in words” value is given as “weak inhibitory activities against ATAD2” and the IC50 was determined as 19.3 ± 2.35 µM. Moreover, the IC50 in the data set on BT-549 cells was over 30 µM.
Regarding `COc1ccc(C(=O)N2CCOCC2)cc1NC(=O)Cn1cnc2c(=O)n(C)c(=O)n(C)c21` [Compound 15i, 2–(1,3-dimethyl-2,6-dioxo-1,2,3,6-tetrahydro-9H-purin-9-yl)-N-(2-methoxy-5-(morpholine-4-carbonyl)phenyl)acetamide], the melting point was 278 to 279 °C. Further, the IC50 in data set [1] came to 11.3 ± 2.79 µM. This compound displayed an IC50 with BT-549 cells of 28 ± 3.61 µM.
